Source: the CheMixHub viscosity set

Tests used:
[1] = xn = mol fraction of the nth substance listed

[2H]O[2H] + CO
[1], 298.15 K, 101 kPa
Conditions | viscosity [mPa·s]
x2 = 0.0449 | 1.386
x2 = 0.0748 | 1.535
x2 = 0.1437 | 1.783
x2 = 0.2044 | 1.893
x2 = 0.3143 | 1.872
x2 = 0.4238 | 1.711

CCCCC(C)O (centres undefined) + CO
[1], 298.15 K, 101.33 kPa
Conditions | viscosity [mPa·s]
x2 = 0.1062 | 3.747
x2 = 0.2053 | 3.337
x2 = 0.3128 | 2.892
x2 = 0.412 | 2.43
x2 = 0.5053 | 2.04
x2 = 0.6071 | 1.647
x2 = 0.703 | 1.315
x2 = 0.8146 | 0.9858
x2 = 0.9006 | 0.7707

CC(C)(C)Br + CCC(C)O
viscosity [mPa·s], [1], 101.3 kPa
Conditions | x1 = 0.1001 | x1 = 0.2023 | x1 = 0.3034 | x1 = 0.4041 | x1 = 0.5076 | x1 = 0.605 | x1 = 0.7049 | x1 = 0.8014 | x1 = 0.8997
298.15 K | 2.174 | 1.629 | 1.302 | 1.105 | 0.9569 | 0.876 | 0.8006 | 0.768 | 0.7327
313.15 K | 1.386 | 1.108 | 0.9333 | 0.8074 | 0.7201 | 0.6655 | 0.6235 | 0.6023 | 0.5859

CC1CCC(O)CC1 (centres undefined)
Conditions | viscosity [mPa·s]
293.15 K, 101 kPa | 30.4

O=C1CCCCCO1 + CNC(C)=O
viscosity [mPa·s], [1], 101 kPa
Conditions | x2 = 0.0922 | x2 = 0.2381 | x2 = 0.3459 | x2 = 0.4411 | x2 = 0.5823 | x2 = 0.6289 | x2 = 0.6641 | x2 = 0.7792 | x2 = 0.9465
303.15 K | 4.458 | 3.929 | 3.6 | 3.366 | 3.201 | 3.187 | 3.218 | 3.308 | 3.629
308.15 K | 3.994 | 3.609 | 3.358 | 3.162 | 2.962 | 2.921 | 2.912 | 2.895 | 3.062
313.15 K | 3.543 | 3.135 | 2.944 | 2.76 | 2.602 | 2.552 | 2.532 | 2.527 | 2.773
318.15 K | 3.182 | 2.761 | 2.616 | 2.479 | 2.372 | 2.33 | 2.348 | 2.349 | 2.453

CCCCCCCCCCCCCCCCCC[P+](CCCC)(CCCC)CCCC.N#Cc1ccc[n-]1 + OCCN(CCO)CCO
viscosity [mPa·s], [1], 100 kPa
Conditions | 293.15 K | 298.15 K | 303.15 K | 313.15 K
x1 = 0.014 | 971 | 643 | 420 | 192
x1 = 0.029 | 1032 | 613 | 390 | 189
x1 = 0.046 | 1123 | 683 | 439 | 217
x1 = 0.085 | 1228 | 775 | 506 | 248
x1 = 0.104 | 1251 | 794 | 526 | 258
x1 = 0.214 | 1185 | 795 | 538 | 267
x1 = 0.286 | 1096 | 746 | 509 | 257
x1 = 0.387 | 1019 | 704 | 483 | 248
x1 = 0.475 | 928 | 646 | 448 | 233
x1 = 0.548 | 856 | 600 | 422 | 225
x1 = 0.73 | 847 | 614 | 459 | 242
x1 = 0.834 | 925 | 653 | 459 | 244

CC(C)(N)CO + CCO
[1], 313.15 K, 100 kPa
Conditions | viscosity [mPa·s]
x1 = 0.03 | 0.91
x1 = 0.054 | 1.05
x1 = 0.11 | 1.3
x1 = 0.26 | 2.32

CC(CC(C)(C)C)CC(C)(C)C + Cc1ccc(C)c(C)c1
viscosity [mPa·s], [1], 102 kPa
Conditions | x2 = 0.0923 | x2 = 0.2008 | x2 = 0.3004 | x2 = 0.4003 | x2 = 0.4979 | x2 = 0.5999 | x2 = 0.7003 | x2 = 0.7999 | x2 = 0.8992
293.15 K | 1.24 | 1.16 | 1.09 | 1.03 | 0.975 | 0.93 | 0.891 | 0.864 | 0.848
303.15 K | 1.05 | 0.981 | 0.926 | 0.882 | 0.845 | 0.808 | 0.776 | 0.75 | 0.736
313.15 K | 0.906 | 0.855 | 0.813 | 0.774 | 0.739 | 0.709 | 0.679 | 0.657 | 0.647
323.15 K | 0.789 | 0.749 | 0.716 | 0.683 | 0.652 | 0.625 | 0.602 | 0.582 | 0.573

Cc1ccc(C(C)C)cc1 + CO
[1], 293.15 K, 101 kPa
Conditions | viscosity [mPa·s]
x2 = 0.2 | 0.799
x2 = 0.4 | 0.793
x2 = 0.6 | 0.793
x2 = 0.7 | 0.774
x2 = 0.8 | 0.732

C=CC#N + C1CCCCC1
[1], 307.4 K, 101.33 kPa
Conditions | viscosity [mPa·s]
x2 = 0.0861 | 0.66
x2 = 0.2848 | 0.53
x2 = 0.5332 | 0.419
x2 = 0.544 | 0.396
x2 = 0.7114 | 0.359
x2 = 0.8989 | 0.318

Cc1ccc(C(C)C)cc1 + CCCCCC
[1], 298.15 K, 101.33 kPa
Conditions | viscosity [mPa·s]
x2 = 0.0316 | 0.768
x2 = 0.0656 | 0.745
x2 = 0.0967 | 0.723
x2 = 0.1908 | 0.662
x2 = 0.2812 | 0.599
x2 = 0.3795 | 0.538
x2 = 0.5183 | 0.474
x2 = 0.6271 | 0.424
x2 = 0.7093 | 0.393
x2 = 0.8209 | 0.349
x2 = 0.9331 | 0.314

CCCCCCCCCCCCCCCCCC[P+](CCCC)(CCCC)CCCC.N#Cc1ccc[n-]1
100 kPa
Conditions | viscosity [mPa·s]
293.15 K | 742
298.15 K | 519
303.15 K | 379
313.15 K | 208
